Read-outs that look alike come from different tables or passages of the source. *1 amine or outer side, *2 acyl side, *3 side chain or, on linkers, in order; H or OH if unused. Where a SMILES comes first, the peptide text is derived from it. Bridges are numbered along the chain shown (N, C = ends). [ ]: non-standard residue; d: D form. ξ: configuration not given here. ξαMeNle(6-ylidene) = CC(CCCC=[*:3])(N[*:1])C(=O)[*:2]; Bip = N[C@@H](Cc1ccc(-c2ccccc2)cc1)C(=O)O; Phe(4-Br) = N[C@@H](Cc1ccc(Br)cc1)C(=O)O; Phe(4-CN) = N#Cc1ccc(C[C@H](N)C(=O)O)cc1; Ala(cPent) = N[C@@H](CC1CCCC1)C(=O)O; dAllylGly = C=CC[C@@H](N)C(=O)O; AllylGly = C=CC[C@H](N)C(=O)O; Pen = CC(C)(S)[C@H](N)C(=O)O; Tle = CC(C)(C)[C@H](N)C(=O)O; hLys = NCCCCC[C@H](N)C(=O)O
Experiments:
[1] = target: T1, hNTS1 receptor (Homo sapiens, UniProt P30989); test: Competitive radioligand binding assay on the hNTS1 receptor; conditions: membranes of CHO-K1 cells expressing hNTS1
T1 construct: membranes prepared from them
T1 sequence (P30989 whole entry): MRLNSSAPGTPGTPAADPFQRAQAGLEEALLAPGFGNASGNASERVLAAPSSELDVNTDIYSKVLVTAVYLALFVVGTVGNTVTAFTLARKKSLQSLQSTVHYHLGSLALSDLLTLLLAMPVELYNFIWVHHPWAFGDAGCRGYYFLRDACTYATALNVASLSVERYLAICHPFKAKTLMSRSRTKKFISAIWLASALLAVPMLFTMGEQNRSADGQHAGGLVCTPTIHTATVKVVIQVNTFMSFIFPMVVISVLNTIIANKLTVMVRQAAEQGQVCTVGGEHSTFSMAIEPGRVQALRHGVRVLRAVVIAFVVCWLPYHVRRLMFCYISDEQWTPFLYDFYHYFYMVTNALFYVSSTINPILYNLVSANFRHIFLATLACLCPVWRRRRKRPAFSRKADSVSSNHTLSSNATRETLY
Method in brief: (§1)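 Membranes from CHO-K1 cells expressing hNTS1 (15 µg, […] ¹²⁵I-[Tyr³]-NT) or 1321N1 cells expressing hNTS2 (50 µg, […] radioligand) were incubated with analogues at 10⁻¹¹–10⁻⁴ M for 60 min at 25 °C in Tris-HCl pH 7.5/0.2% BSA. Filtration and γ-counting followed; nonspecific binding was defined with 10⁻⁵ M NT(8-13), and IC50 was obtained by one-site fit.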

[2] = target: T2, hNTS2 receptor (Homo sapiens, UniProt O95665); test: Competitive radioligand binding assay on the hNTS2 receptor; conditions: for IC50: membranes of 1321N1 cells expressing hNTS2; for Selectivity: ratio IC50 for NTS1 : IC50 for NTS2
T2 construct: membranes prepared from them
T2 sequence (O95665 whole entry): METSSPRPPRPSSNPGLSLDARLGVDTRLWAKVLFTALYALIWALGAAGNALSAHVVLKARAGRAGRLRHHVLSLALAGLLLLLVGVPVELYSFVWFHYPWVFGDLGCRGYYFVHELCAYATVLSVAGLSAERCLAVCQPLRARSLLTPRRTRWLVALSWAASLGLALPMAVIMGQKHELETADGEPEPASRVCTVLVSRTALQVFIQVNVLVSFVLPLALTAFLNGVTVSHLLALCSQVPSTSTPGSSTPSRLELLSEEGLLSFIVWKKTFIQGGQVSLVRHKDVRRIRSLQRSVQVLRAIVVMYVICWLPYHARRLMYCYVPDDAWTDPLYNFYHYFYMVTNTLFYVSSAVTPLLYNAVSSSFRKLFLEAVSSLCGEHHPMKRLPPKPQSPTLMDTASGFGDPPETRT
Method in brief: as §1

[3] = test system: Sprague-Dawley rats; test: Tail-flick test (acute thermal pain), intrathecal injection; type: in vivo, rat; conditions: 61 nmol/kg i.t.
Protocol: Rats were housed two per cage on Aspen shavings in a quiet room and kept on a 12 h light/dark cycle and allowed ad libitum access to food and water. The experimental procedures in this study were approved by the Animal Care Committee of Université de Sherbrooke and were in accordance with policies and directives of the Canadian Council on Animal Care.
Tail-flick test: The tail flick test was used as outcome measures heat-induced pain in animals and as indicators of a compound's analgesic efficacy.
Acute pain was assessed using the Tail flick test (Tail Flick Analgesia meterV2.00, Colombus Instruments, Columbus, Ohio, USA). Tail flick test measures sensitivity to a high-intensity light beam focused on the rat tail. The tail flick apparatus was set at a light intensity of 6 and a cutoff of 10 seconds. The latency to flick the tail out of the path of the light beam corresponds to the measure of pain sensitivity or analgesia.
Before testing, animals were individually acclimatized to manipulations and behavioral apparatus 5 min/day for three consecutive days. On the test day, latencies baseline measures were taken before drug injection to provide a mean baseline. The compounds were diluted in 0.9% saline at the desired dose. The effects of the compound or saline on thermal nociception were assessed every 10 min for up to 60 min following i.t. administration.
Moreover, tail flick latencies were converted into the percent maximal possible effect (% MPE) at the time of maximal peak of analgesia. % MPE were calculated according to the following formula: % MPE=[(Test latency)−(Saline latency)]/[(Cutoff)−(Saline latency)]×100. Data are expressed as mean±SEM of 5-8 animals for each dose.
Then, ED50 values were determined using the dose-response stimulation log(agonist) vs response (four parameters).
Data are expressed as mean±standard errors of the mean (SEM). All graphs and statistical analysis were performed using GraphPad Prism™ 7 (GraphPad software, La Jolla, CA, USA). […] A two-way ANOVA followed by Tukey's multiple comparisons test was used to determine the significant differences in changes in body temperature between different concentrations of compounds and saline (FIG. 9). The % MPE for the tail-flick test and the areas under the curve for the formalin test were analyzed using a one-way ANOVA followed by a Dunnett's multiple comparisons test to compare different concentrations of compounds and saline treatment (FIGS. 2B, 4B, 7A-B and 8B-D). […] Nonlinear regression using three parameters was performed for % of ileum relaxation and IC50 value was obtained from the resulting dose-response curve (FIG. 11). A difference in response was considered significant with p-values *p<0.05, **p<0.01, ***p<0.001 and **p<0.0001.

[4] = IC50 NTS1, displacement of 125I-[Tyr3]-NT
[5] = IC50 NTS2, displacement of 125I-[Tyr3]-NT
[6] = displacement of 125I-[Tyr3]-NT, read-out: IC50 NTS1
[7] = displacement of 125I-[Tyr3]-NT, read-out: IC50 NTS2 (converted)

SMILES | IC50 [1, 4] [nM] | IC50 [2, 5] [nM] | Selectivity [2] | latency of the tail-flick reflex compared to baseline [3] | IC50 [1, 6] [nM] | IC50 [2, 7] [nM] | Acute pain (tail beam) (i.t.) ([3]; rat)
NCCCC[C@@H]1NC(=O)[C@H](CCCCN)NC(=O)[C@@H](N)CC=CC[C@@H](C(=O)N[C@@H](Cc2ccc(Br)cc2)C(=O)N[C@@H](CC2CCCC2)C(=O)O)NC1=O [compound 127, c[G(All)KKG(All)]F(4-bromo)A(cyclopentyl)] (H-[AllylGly]KK[AllylGly][Phe(4-Br)][Ala(cPent)]-OH; staple 1-4) | > 100000 | 2 | 49505 | sustainably increased latency | – | – | –
CC(C)C[C@H](NC(=O)[C@H](Cc1ccc(O)cc1)NC(=O)[C@@H]1CC=CCCC(=O)N[C@@H](CCCCN)C(=O)N[C@@H](CCCCN)C(=O)N1)C(=O)O [compound 60, c[K(Pentenoyl)KG(All)]YL] | – | – | >2127.7 | – | > 100000 | 47 | No effect (61 nmol/kg)
CC(C)C[C@H](NC(=O)[C@H](Cc1ccc(Br)cc1)NC(=O)[C@@H]1CC=CC[C@H](N)C(=O)N[C@@H](CCCCN)C(=O)N[C@@H](CCCCN)C(=O)N1)C(=O)O [compound 116, c[G(All)KKG(All)]F(4-bromo)L] (H-[AllylGly]KK[AllylGly][Phe(4-Br)]L-OH; staple 1-4) | > 100000 | 15.5 | >6443 | sustainably increased latency | – | – | –
CC1(C(=O)N[C@@H](Cc2ccc(O)cc2)C(=O)N[C@@H](CC2CCCC2)C(=O)O)CCCC=CC[C@H](N)C(=O)N[C@@H](CCCCN)C(=O)N[C@@H](CCCCN)C(=O)N1 (stereo partly drawn) [compound 128, c[G(All)KKG((S)-alpha-Me-(4-pentenyl))]YA(cyclopentyl)] (H-[AllylGly]KK[ξαMeNle(6-ylidene)]Y[Ala(cPent)]-OH; staple 1-4) | > 100000 | 7.8 | 12788 | sustainably increased latency | – | – | –
CC1(C(=O)N[C@@H](Cc2ccc(Br)cc2)C(=O)N[C@@H](CC2CCCC2)C(=O)O)CCCC=CC[C@H](N)C(=O)N[C@@H](CCCCN)C(=O)N[C@@H](CCCCN)C(=O)N1 (stereo partly drawn) [compound 133, c[G(All)KKG(alpha-Me-(4-pentenyl))]F(4-bromo)A (cyclopentyl)] (H-[AllylGly]KK[ξαMeNle(6-ylidene)][Phe(4-Br)][Ala(cPent)]-OH; staple 1-4) | > 100000 | 3 | 33333 | sustainably increased latency | – | – | –
CC(C)C[C@H](NC(=O)[C@H](Cc1ccc(-c2ccccc2)cc1)NC(=O)[C@@H]1CC=CC[C@H](N)C(=O)N[C@@H](CCCCN)C(=O)N[C@@H](CCCCN)C(=O)N1)C(=O)O [compound 139, c[G(All)KKG(All)]A (biphenyl)L] (H-[AllylGly]KK[AllylGly][Bip]L-OH; staple 1-4) | – | – | 2061 | – | > 100000 | 48.5 | –
CC(C)(C)[C@H](NC(=O)[C@H](Cc1ccc(O)cc1)NC(=O)[C@@H]1CC=CC[C@H](N)C(=O)N[C@@H](CCCCN)C(=O)N[C@@H](CCCCN)C(=O)N1)C(=O)O [compound 27, c[G(All)KKG(All)]YTle] (H-[AllylGly]KK[AllylGly]Y[Tle]-OH; staple 1-4) | – | – | >1.3 | – | > 100000 | 77800 | –
CC(C)C[C@H](NC(=O)[C@H](Cc1ccc(O)cc1)NC(=O)[C@H]1CC=CC[C@@H](N)C(=O)N[C@@H](CCCCN)C(=O)N[C@@H](CCCCN)C(=O)N1)C(=O)O [compound 42, c[G*(All)KKG*(All)]YL] (H-[dAllylGly]KK[dAllylGly]YL-OH; staple 1-4) | – | – | >42 | – | > 100000 | 2300 | –
CC(C)C[C@H](NC(=O)[C@H](Cc1ccc(O)cc1)NC(=O)[C@@H]1CC=CC[C@H](N)C(=O)N[C@@H](CCCCN)C(=O)NCC(=O)N1)C(=O)O [compound 59, c[G(All)KGG(All)]YL] (H-[AllylGly]KG[AllylGly]YL-OH; staple 1-4) | – | – | >47 | – | > 100000 | 2130 | –
CC(C)C[C@H](NC(=O)[C@H](Cc1ccc(O)cc1)NC(=O)[C@@H]1CSSC(C)(C)[C@H](N)C(=O)N[C@@H](CCCCN)C(=O)N[C@@H](CCCCN)C(=O)N1)C(=O)O [compound 154, c[PenKKC]YL] (H-[Pen]KKCYL-OH; disulfide 1-4) | – | – | 81 | – | > 100000 | 1200 | –
CC(C)C[C@H](NC(=O)[C@H](Cc1ccc(O)cc1)NC(=O)[C@@H]1CC=CC[C@H](N)C(=O)N[C@@H](CCC(=O)O)C(=O)N[C@@H](CCCCN)C(=O)N1)C(=O)O [compound 88, c[G(All)EKG(All)]YL] (H-[AllylGly]EK[AllylGly]YL-OH; staple 1-4) | – | – | >9.4 | – | > 100000 | 10600 | –
CC(C)C[C@H](NC(=O)[C@H](Cc1ccc(C#N)cc1)NC(=O)[C@@H]1CC=CC[C@H](N)C(=O)N[C@@H](CCCCN)C(=O)N[C@@H](CCCCN)C(=O)N1)C(=O)O [compound 118, c[G(All)KKG(All)]F(4-cyano)L] (H-[AllylGly]KK[AllylGly][Phe(4-CN)]L-OH; staple 1-4) | – | – | >1729 | – | > 100000 | 57.8 | –
CC(C)C[C@H](NC(=O)[C@H](Cc1ccc(O)cc1)NC(=O)[C@@H]1CC=CC[C@H](N)C(=O)N[C@@H](CCCCCN)C(=O)N[C@@H](CCCCN)C(=O)N1)C(=O)O [compound 150, c[G(All)homolysineKG(All)]YL] (H-[AllylGly][hLys]K[AllylGly]YL-OH; staple 1-4) | – | – | 533 | – | > 100000 | 187 | –
CC(C)C[C@H](NC(=O)[C@H](Cc1ccc(O)cc1)NC(=O)[C@@H]1CC=CC[C@H](N)C(=O)N[C@@H](Cc2c[nH]cn2)C(=O)N[C@@H](CCCCN)C(=O)N1)C(=O)O [compound 83, c[G(All)HKG(All)]YL] (H-[AllylGly]HK[AllylGly]YL-OH; staple 1-4) | – | – | >76 | – | > 100000 | 1320 | –
NCCCC[C@@H]1NC(=O)CCC=CC[C@@H](C(=O)N[C@@H](Cc2ccc(O)cc2)C(=O)N[C@@H](CC2CCCC2)C(=O)O)NC(=O)[C@H](CCCCN)NC1=O [compound 129, c[pK(pentenoyl)KG(All)]Y A(cyclopentyl)] | – | – | 7194 | – | > 100000 | 13.9 | –
